Structures can show the parent of a compound that is named as a salt. Where two headings read alike, the source gives them in different places.
What was measured:
Panc-1 = assay: Cell viability assay (resazurin, 96 hr) in Panc-1; type: cell-based; conditions: Homo sapiens; Panc-1 pancreatic cell line, 96 hr exposure; read-out: Panc-1_Cell Viability_IC50
Method: (§1) Cell Viability Assay in MIA PaCa-2 and Panc-1
(§2) MIA PaCa-2 (ATCC® CRL-1420™) and Panc-1 (CRL-1469™), both pancreatic cell lines were seeded in their respective medium (DMEM, Cat #10569044 with 10% FBS, Cat #16000044; Gibco for Panc-1 and an additional 2.5% Horse Serum, Cat #16050122; Gibco for MIA PaCa-2) at a cell count of 3000 cells per 100 μl per well in a 96 well edge plate (167425; ThermoFisher). Cells were allowed to grow at 37° C. for 24 hr in 5% CO2 (culture conditions) in a Nuaire incubator (humidified). Serially diluted compounds (100 μl) were added to the culture plate 24 hr later and the cultures (MIA PaCa-2 and Panc-1) were further incubated in culture conditions for 96 hr. Experiment was terminated at the completion of 96 hr exposure to the drug by replacing the medium with 100 μl of 1 mM of resazurin (R7017; Sigma) prepared in culture medium and the plates were further incubated in culture conditions for 4 hr. Fluorescence was then measured using a multimodal plate reader (Biotek Synergy Neo) at an excitation wavelength of 535 nm and emission wavelength of 590 nm to obtain relative fluorescence units. Data analysis was done by subtracting the background fluorescence (only medium blank) value from each reading and then normalizing with the vehicle control (DMSO treated cells) to obtain percent survival/proliferation. Percent survival at different doses was used to calculate IC50 by fitting the curve to the “four-parameter variable slope logistic model” using Prism Graph Pad.

TGFBR1 (ALK5) = target: T1, TGFBR1 (ALK5) (Homo sapiens, UniProt P36897); assay: ALK5 kinase assay (LanthaScreen Terbium labeled TR-FRET); type: biochemical
T1 sequence (P36897 34-503): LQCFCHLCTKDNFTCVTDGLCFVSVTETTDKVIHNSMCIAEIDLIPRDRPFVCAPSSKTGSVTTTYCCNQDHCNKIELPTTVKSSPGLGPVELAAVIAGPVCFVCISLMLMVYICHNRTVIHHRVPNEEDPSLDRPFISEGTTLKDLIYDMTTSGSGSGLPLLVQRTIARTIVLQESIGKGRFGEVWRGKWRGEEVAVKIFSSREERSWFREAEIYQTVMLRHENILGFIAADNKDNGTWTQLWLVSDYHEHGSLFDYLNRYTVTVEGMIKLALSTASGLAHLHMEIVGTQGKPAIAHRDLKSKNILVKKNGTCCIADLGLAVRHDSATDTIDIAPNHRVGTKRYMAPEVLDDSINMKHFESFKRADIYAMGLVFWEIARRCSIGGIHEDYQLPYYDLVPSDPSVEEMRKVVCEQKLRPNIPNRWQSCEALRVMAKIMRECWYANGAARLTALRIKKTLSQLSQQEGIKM
Method: ALK5 Kinase Assay for IC50 Determination:
IC50 values of compounds against TGFβ kinase was determined by LanthaScreen™ Terbium Labeled TR-FRET assay. Kinase assays were performed in IX kinase buffer (# PV6135, Invitrogen, Life Technologies Grand Island, N.Y.) where total reaction volume was 10 μL in low-volume 384-well plates (#4511,Corning). Serially diluted compounds (3-fold) were incubated with TGFβ kinase (6 nM) for 10 min, following which a mixture of ATP (10 μM) (# A1852, Sigma, St-Louis, Mo.) and fluorescent-PolyGT substrate (200 nM) (# PV3610, Invitrogen, Life Technologies Grand Island, N.Y.) was added and incubated in dark at room temperature for 1 h. After 1 h, 10 μL stop solution containing Terbium labeled antibody (4 nM) (# PV3529, Invitrogen, Life Technologies Grand Island, N.Y.) and EDTA (# E5134, Sigma, St-Louis, Mo.) (20 mM) in TR-FRET dilution buffer (# PV3574, Invitrogen, Life Technologies Grand Island, N.Y.) was added. Readings were taken in a Synergy Neo Plate reader (BioTek, Winooski) at single excitation of 340 nm and Dual emission at 495 nm and 520 nm respectively.
The % activity of test samples was calculated as (Sample−Min)×100/(Max−Min). [Max: DMSO control, complete reaction with enzyme with DMSO and Min: No enzyme with DMSO]. Percent inhibition (100-% activity) was fitted to the “four-parameter logistic model” in XLfit for determination of IC50 values.

MIA PaCa-2 = assay: Cell viability assay (resazurin, 96 hr) in MIA PaCa-2; type: cell-based; conditions: Homo sapiens; MIA PaCa-2 pancreatic cell line, 96 hr exposure; read-out: MiaPaCa-2_Cell Viability_IC50
Method: as §1, §2

MAPK14/p38α kinase = target: T2, MAPK14/p38α kinase (Homo sapiens, UniProt Q16539); assay: MAPK14/p38α kinase assay (LanthaScreen TR-FRET); type: biochemical; conditions: for inhibition at 0.1 µM: 100 nM concentration of compound, Table 4, read-out: Enzyme Activity MAPK14 (p38alpha) % Inh at 100 nM
T2 construct: purchased ThermoFisher PV3304
T2 sequence (Q16539 whole entry): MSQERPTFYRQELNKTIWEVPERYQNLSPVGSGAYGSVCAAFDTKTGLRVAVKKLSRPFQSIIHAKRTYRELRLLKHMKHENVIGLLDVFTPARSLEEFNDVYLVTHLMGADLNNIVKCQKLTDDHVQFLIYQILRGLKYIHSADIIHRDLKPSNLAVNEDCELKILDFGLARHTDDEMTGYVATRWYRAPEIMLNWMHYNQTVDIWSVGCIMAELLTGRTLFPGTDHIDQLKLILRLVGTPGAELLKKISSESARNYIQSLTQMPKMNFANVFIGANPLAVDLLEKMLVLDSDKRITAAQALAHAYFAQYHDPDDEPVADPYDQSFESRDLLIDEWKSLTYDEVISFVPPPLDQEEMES
Method: MAPK14/p38α Kinase Assay for IC50 Determination:
IC50 values of compounds against MAPK14/P38α kinase were determined by Lanthascreen based TR-FRET assay. Kinase reactions were performed in a 10 μL volume in low-volume 384-well plates. The concentration of substrate was maintained at 400 nM in the assay, and the kinase reaction buffer (1×; Cat # PV3189, ThermoFisher) consisted of 50 mM HEPES pH 7.5, 0.01% BRIJ-35, 10 mM MgCl2, and 1 mM EGTA. Serially diluted compounds (3-fold) in DMSO (0.5% in final reaction) were incubated with cocktail of MAPK14/p38α kinase (20 ng/ml; Cat # PV3304, ThermoFisher), Substrate GFP-ATF2 (19-96), (0.4 μM; Cat # PV4445, ThermoFisher), ATP (90 μM; Cat # PV3227, ThermoFisher) and buffer. Kinase reactions were allowed to proceed for 1 hour at room temperature before EDTA (10 mM; Cat # P2825, ThermoFisher) and LanthaScreen™ Tb-antipATF2 (pThr71) Antibody (2 nM; Cat # PV4451, ThermoFisher) in TR-FRET dilution buffer (IX; Cat # PV3574, ThermoFisher) were added. The plate was allowed to incubate at room temperature for 30 minutes before being read on a BMG Pherastar plate reader using the LanthaScreen™ filter block for LanthaScreen™ TR-FRET.
The resulting TR-FRET emission ratio was plotted against the concentration of inhibitor, and the data was fit to a sigmoidal dose-response curve with a variable slope. The IC50 for the inhibitor was calculated from the curve.

## CC(C)c1cnc(-c2ccc(F)cc2)nc1Nc1ccnc2[nH]cc(N3CCN[C@@H](C)C3)c12 [Compound No. 11, (S)—N-(2-(4-fluorophenyl)-5-isopropylpyrimidin-4-yl)-3-(3-methylpiperazin-1-yl)-1H-pyrrolo[2,3-b]pyridin-4-amine hydrochloride]
Panc-1
  IC50: 2.81 µM
TGFBR1 (ALK5); Table 4, read-out: ALK5 IC50
  IC50: 0.147 µM
MIA PaCa-2
  IC50: 2.04 µM
MAPK14/p38α kinase
  inhibition at 0.1 µM: 18%

## CC(C)c1cnc(-c2ccccc2)nc1Nc1ccnc2[nH]cc(C(=O)C(N)=O)c12 [Compound No. 26, 2-(4-((5-isopropyl-2-phenylpyrimidin-4-yl)amino)-1H-pyrrolo[2,3-b]pyridin-3-yl)-2-oxoacetamide hydrochloride]
Panc-1
  IC50: > 30 µM
TGFBR1 (ALK5); Table 3, read-out: IC50 (ALK5)
  IC50: 0.602 µM
MIA PaCa-2
  IC50: 2.19 µM
MAPK14/p38α kinase; Table 3, read-out: IC50 (P38 alpha)
  IC50: 0.244 µM

## CC(C)c1cnc(-c2ccc(F)cc2)nc1Nc1ccnc2[nH]cc(N3CCN[C@H](C)C3)c12 [Compound No. 9, (R)—N-(2-(4-fluorophenyl)-5-isopropylpyrimidin-4-yl)-3-(3-methylpiperazin-1-yl)-1H-pyrrolo[2,3-b]pyridin-4-amine hydrochloride]
Panc-1
  IC50: 3.28 µM
TGFBR1 (ALK5); Table 4, read-out: ALK5 IC50
  IC50: 0.103 µM
MIA PaCa-2
  IC50: 3.53 µM
MAPK14/p38α kinase
  inhibition at 0.1 µM: 52%

## CC(C)c1ccc(-c2ccc(F)cc2)nc1Nc1ccnc2[nH]cc(C(=O)C(N)=O)c12 [Compound No. 27, 2-(4-(6-(4-fluorophenyl)-3-isopropylpyridin-2-ylamino)-1H-pyrrolo [2,3-b]pyridin-3-yl)-2-oxoacetamide hydrochloride]
Panc-1
  IC50: > 30 µM
TGFBR1 (ALK5); Table 4, read-out: ALK5 IC50
  IC50: > 5 µM
MIA PaCa-2
  IC50: > 30 µM
MAPK14/p38α kinase
  inhibition at 0.1 µM: 0%

## CC(C)c1cnc(-c2ccc(F)cc2)nc1Nc1ccnc2[nH]cc(N3CCC(N)CC3)c12 [Compound No. 15, 3-(4-aminopiperidin-1-yl)-N-(2-(4-fluorophenyl)-5-isopropylpyrimidin-4-yl)-1H-pyrrolo[2,3-b]pyridin-4-amine hydrochloride]
Panc-1
  IC50: 2.96 µM
TGFBR1 (ALK5); Table 5, read-out: ALK5 IC50
  IC50: 0.245 µM
MIA PaCa-2
  IC50: 5.5 µM

## CC(C)c1cnc(-c2ccc(F)cc2)nc1Nc1ccnc2[nH]cc(C3(O)CCNCC3)c12 [Compound No. 13, 4-(4-((2-(4-fluorophenyl)-5-isopropylpyrimidin-4-yl)amino)-1H-pyrrolo[2,3-b]pyridin-3-yl)piperidin-4-ol hydrochloride]
Panc-1
  IC50: 17.9 µM
TGFBR1 (ALK5); Table 5, read-out: ALK5 IC50
  IC50: 0.108 µM
MIA PaCa-2
  IC50: 10.9 µM

## CC(C)c1cnc(-c2ccc(F)cc2)nc1Nc1ccnc2[nH]cc(C(=O)C(=O)N3CCN(C)CC3)c12 [Compound No. 24, 1-(4-(2-(4-fluorophenyl)-5-isopropylpyrimidin-4-ylamino)-1H-pyrrolo [2,3-b]pyridin-3-yl)-2-(4-methylpiperazin-1-yl) ethane-1,2-dione hydrochloride]
Panc-1
  IC50: > 30 µM
TGFBR1 (ALK5); Table 5, read-out: ALK5 IC50
  IC50: 1.5 µM
MIA PaCa-2
  IC50: 0.77 µM

## CCCCNC(=O)C(=O)c1c[nH]c2nccc(Nc3nc(-c4ccc(F)cc4)ncc3C(C)C)c12 [Compound No. 20, N-butyl-2-(4-(2-(4-fluorophenyl)-5-isopropylpyrimidin-4-ylamino)-1H-pyrrolo [2,3-b]pyridin-3-yl)-2-oxoacetamide hydrochloride]
Panc-1
  IC50: > 30 µM
TGFBR1 (ALK5); Table 5, read-out: ALK5 IC50
  IC50: > 5 µM
MIA PaCa-2
  IC50: > 30 µM

## COc1ccc(-c2ncc(C(C)C)c(Nc3ccnc4[nH]cc(C(=O)C(N)=O)c34)n2)cc1 [Compound No. 25, 2-(4-((5-isopropyl-2-(4-methoxyphenyl)pyrimidin-4-yl)amino)-1H-pyrrolo[2,3-b]pyridin-3-yl)-2-oxoacetamide hydrochloride]
Panc-1
  IC50: > 30 µM
TGFBR1 (ALK5); Table 5, read-out: ALK5 IC50
  IC50: 2.57 µM
MIA PaCa-2
  IC50: > 30 µM

## CC(C)c1cnc(-c2ccc(F)cc2)nc1Nc1ccnc2[nH]cc(N3CCOCC3C)c12 (stereo not shown) [Compound No. 14, N-(2-(4-fluorophenyl)-5-isopropylpyrimidin-4-yl)-3-(3-methylmorpholino)-1H-pyrrolo [2,3-b] pyridin-4-amine hydrochloride]
Panc-1
  IC50: 11.2 µM
TGFBR1 (ALK5); Table 5, read-out: ALK5 IC50
  IC50: 3.71 µM
MIA PaCa-2
  IC50: 11.1 µM

## CC(C)c1cnc(-c2ccc(F)cc2)nc1Nc1ccnc2[nH]cc(C(=O)C(=O)N3CCOCC3)c12 [Compound No. 22, 1-(4-(2-(4-fluorophenyl)-5-isopropylpyrimidin-4-ylamino)-1H-pyrrolo [2,3-b]pyridin-3-yl)-2-morpholinoethane-1,2-dione hydrochloride]
Panc-1
  IC50: 14.2 µM
TGFBR1 (ALK5); Table 5, read-out: ALK5 IC50
  IC50: 3.95 µM
MIA PaCa-2
  IC50: > 30 µM

## CNC(=O)C(=O)c1c[nH]c2nccc(Nc3nc(-c4ccc(F)cc4)ncc3C(C)C)c12 [Compound No. 29, 2-(4-((2-(4-fluorophenyl)-5-isopropylpyrimidin-4-yl)amino)-1H-pyrrolo[2,3-b]pyridin-3-yl)-N-methyl-2-oxoacetamide hydrochloride]
Panc-1
  IC50: 26 µM
TGFBR1 (ALK5); Table 5, read-out: ALK5 IC50
  IC50: 2.77 µM
MIA PaCa-2
  IC50: 23 µM

## CNC(=O)C(=O)c1c[nH]c2nccc(Nc3cc(-c4ccc(F)cc4)ncc3C(C)C)c12 [Compound No. 21, 2-(4-((2-(4-fluorophenyl)-5-isopropylpyridin-4-yl)amino)-1H-pyrrolo[2,3-b]pyridin-3-yl)-N-methyl-2-oxoacetamide hydrochloride]
Panc-1
  IC50: 12.7 µM
TGFBR1 (ALK5); Table 5, read-out: ALK5 IC50
  IC50: 0.574 µM
MIA PaCa-2
  IC50: 10.7 µM

## CC(C)c1cnc(-c2ccc(F)cc2)nc1Nc1ccnc2[nH]cc(C(=O)C(=O)N(C)C)c12 [Compound No. 16, 2-(4-((2-(4-fluorophenyl)-5-isopropylpyrimidin-4-yl)amino)-1H-pyrrolo[2,3-b]pyridin-3-yl)-N,N-dimethyl-2-oxoacetamide]
Panc-1
  IC50: 17.1 µM
TGFBR1 (ALK5); Table 5, read-out: ALK5 IC50
  IC50: 1.92 µM
MIA PaCa-2
  IC50: 10.2 µM
